Reference: patent US20120021434A1, “METHOD FOR TREATING B CELL REGULATED AUTOIMMUNE DISORDERS” (Synta Pharmaceuticals Corp., priority 2005, published 2012)

Tests used:
[1] = biological target: T1, c-Rel (Mus musculus, UniProt P15307); assay: Immunoblot and densitometry of nuclear c-Rel in LPS/IFNγ-stimulated Raw264.7 cells; type: cell-based; conditions: Raw264.7, LPS/IFNγ, immunoblot densitometry
T1 construct: nuclear extracts from RAW cells stimulated with LPS/IFNγ; endogenous in cells; host or cells: RAW264.7
T1 sequence (P15307 whole entry): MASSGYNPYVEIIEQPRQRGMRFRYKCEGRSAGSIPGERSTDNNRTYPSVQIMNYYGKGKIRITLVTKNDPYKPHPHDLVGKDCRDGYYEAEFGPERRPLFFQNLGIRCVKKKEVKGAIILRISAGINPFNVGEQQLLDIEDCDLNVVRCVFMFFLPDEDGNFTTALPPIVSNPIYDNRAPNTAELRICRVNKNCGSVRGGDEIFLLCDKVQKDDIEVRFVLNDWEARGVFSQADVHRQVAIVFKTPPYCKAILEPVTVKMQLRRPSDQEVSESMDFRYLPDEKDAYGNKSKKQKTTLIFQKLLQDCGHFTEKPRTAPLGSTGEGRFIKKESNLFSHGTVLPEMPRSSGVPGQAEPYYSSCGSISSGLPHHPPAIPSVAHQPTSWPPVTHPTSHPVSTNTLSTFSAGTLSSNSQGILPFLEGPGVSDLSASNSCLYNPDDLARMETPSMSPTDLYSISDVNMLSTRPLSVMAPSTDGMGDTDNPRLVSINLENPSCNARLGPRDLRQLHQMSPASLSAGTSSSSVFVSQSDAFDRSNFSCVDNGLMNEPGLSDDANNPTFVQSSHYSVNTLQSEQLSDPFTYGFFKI
Experimental: Methods: 20×10^6 Raw 264.7 cells were treated with either DMSO, LPS/IFNγ, or LPS/IFNγ/Compound 50. (LPS conc. 1 ug/ml f.c.; mouse IFNγ mouse 100 U/ml f.c, Compound 501 uM f.c). (LPS: Sigma Cat # L2654. Mouse IFNγ; Cat # R+D 485-MICF). Cells were pre-treated with Compound 50 for 30 min, then LPS/IFNγ was added. After 3 hrs, nuclear and cytoplasmic extracts were prepared according to the BD™ TransFactor Extraction Kit and user manual. Briefly, cells were washed in PBS, harvested and lysed in hypotonic lysis buffer on ice. Cells were then disrupted by drawing the cell suspension through a No. 27 gauge needle 10 times. Next, the cell suspension was centrifuged, and the cytoplasmic extract (supernatant) was collected. The nuclear pellet was then disrupted by resuspension in high salt extraction buffer and was drawn through the needle 10 times. […]
After treatment with Compound 50, nuclear extract and cytoplasmic extract were prepared from 20×10^6 Raw264.7 cells by using Extraction kits from BD Biosciences (Cat. 631921), and above for experimental details. […] Densitometry analysis was performed using Quantity One software from BioRad.
The reduction in c-RelDNA-binding activity correlated with a 40-50% reduction in the levels of nuclear c-Rel as detected by immunoblot analysis (see immunoblot FIG. 14 and densitometry FIG. 15). […]

[2] = system: p50; assay: Western blot of THP-1 nuclear extracts: p50; type: cell-based; conditions: IFN-γ plus LPS or IFN-γ plus SAC, remained above non-stimulated levels
Experimental: The THP-1 cell, Jurkat cell and RAW264.7 cell line were obtained from American Type Culture Collection (Manassas, Va.). The THP-1 Jurkat cells were cultured in RPMI 1640 (ATCC, Manassas, Va.), supplemented with 10% FCS (ATCC, Manassas, Va.), and 1% penicillin/Streptomycin (Gibco-BRL, New York, N.Y.). The RAW264.7 cells were cultured in DMEM (ATCC, Manassas, Va.) supplemented with 10% FCS (ATCC, Manassas, Va.), and 1% penicillin/Streptomycin (Gibco-BRL, New York, N.Y.). The cells were stimulated with human or murine recombinant IFNγ (100 ng/ml) for 10 h followed by LPS (1 μg/ml) or SAC (0.025%) CpG ([…]) in the presence or absence of Compound 50 at different concentrations for an additional incubation.
THP-1 cells were suspended in 20 volumes of buffer A containing 10 mM KCl, 10 mM HEPES (pH 7.9), 1 mM MgCl2, 1 mM dithiothreitol (DTT), 0.1% Nonidet p40 (NP-40), and 0.5 mM phenylmethylsulfonyl fluoride (PMSF) and homogenized and centrifuged at 10,000 rpm at 4C afor 5 min. […]
Of the transcription factors that have been analyzed, two factors, ICSBP and c-Rel, seem to be affected by Compound 4/Compound 50 treatment. […]

Compound: Cc1cccc(/C=N/Nc2cc(N3CCOCC3)nc(OCCc3ccccn3)n2)c1 [Compound 50, N-(3-Methyl-benzylidene)-N′-[6-morpholin-4-yl-2-(2-pyridin-2-yl-ethoxy)-pyrimidin-4-yl]-hydrazine]
- reduction in the levels of nuclear c-Rel [1]: 40-50%
- nuclear p50 levels [2]: decreased slightly
